Measurements taken from PubChem BioAssay (NCI).
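All cell lines were grown in 96-well plates and treated with compound for 48 hours. GI50 = concentration required for 50% inhibition of growth. TGI is the concentration that stops growth completely.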

Columns and labels:
Assay in all cases: NCI-60 cell line screen, 48 h
NCI-H23 lung = tested on: NCI-H23 lung
OVCAR-5 ovarian = tested on: OVCAR-5 ovarian
UO-31 renal = tested on: UO-31 renal
COLO 205 colon = tested on: COLO 205 colon
SR leukemia = tested on: SR leukemia
UACC-257 melanoma = tested on: UACC-257 melanoma
SK-MEL-5 melanoma = tested on: SK-MEL-5 melanoma
PC-3 prostate = tested on: PC-3 prostate
RPMI-8226 leukemia = tested on: RPMI-8226 leukemia
LOX IMVI melanoma = tested on: LOX IMVI melanoma
HCC-2998 colon = tested on: HCC-2998 colon
CCRF-CEM leukemia = tested on: CCRF-CEM leukemia
SK-MEL-28 melanoma = tested on: SK-MEL-28 melanoma
TK-10 renal = tested on: TK-10 renal
BT-549 breast = tested on: BT-549 breast
ACHN renal = tested on: ACHN renal
U251 CNS = tested on: U251 CNS
HOP-62 NSCLC = tested on: HOP-62 NSCLC
A549 NSCLC = tested on: A549 NSCLC
SN12C renal = tested on: SN12C renal
SNB-19 CNS = tested on: SNB-19 CNS
SK-OV-3 ovarian = tested on: SK-OV-3 ovarian
HT29 colon = tested on: HT29 colon
SF-295 CNS = tested on: SF-295 CNS
SW-620 colon = tested on: SW-620 colon
UACC-62 melanoma = tested on: UACC-62 melanoma
K-562 leukemia = tested on: K-562 leukemia
OVCAR-3 ovarian = tested on: OVCAR-3 ovarian
HCT-15 colon = tested on: HCT-15 colon
IGROV1 ovarian = tested on: IGROV1 ovarian
HCT-116 colon = tested on: HCT-116 colon
SF-539 CNS = tested on: SF-539 CNS
NCI-H226 lung = tested on: NCI-H226 lung
NCI-H522 lung = tested on: NCI-H522 lung
MALME-3M melanoma = tested on: MALME-3M melanoma
M14 melanoma = tested on: M14 melanoma
EKVX NSCLC = tested on: EKVX NSCLC
SNB-75 CNS = tested on: SNB-75 CNS
NCI/ADR-RES ovarian = tested on: NCI/ADR-RES ovarian
OVCAR-8 ovarian = tested on: OVCAR-8 ovarian
SF-268 CNS = tested on: SF-268 CNS
SK-MEL-2 melanoma = tested on: SK-MEL-2 melanoma
MDA-MB-435 = tested on: MDA-MB-435
786-0 renal = tested on: 786-0 renal
MOLT-4 leukemia = tested on: MOLT-4 leukemia
MDA-MB-231 breast = tested on: MDA-MB-231 breast
T-47D breast = tested on: T-47D breast
A498 renal = tested on: A498 renal
DU-145 prostate = tested on: DU-145 prostate
HS 578T breast = tested on: HS 578T breast
HOP-92 NSCLC = tested on: HOP-92 NSCLC
RXF 393 renal = tested on: RXF 393 renal
KM12 colon = tested on: KM12 colon
MCF7 breast = tested on: MCF7 breast
NCI-H460 lung = tested on: NCI-H460 lung
OVCAR-4 ovarian = tested on: OVCAR-4 ovarian
HL-60(TB) leukemia = tested on: HL-60(TB) leukemia
CAKI-1 renal = tested on: CAKI-1 renal

CCCCCc1nc2c(c3c1CCCC3)CCCC2 showed a GI50 (NCI-H23 lung) of 5.06 µM, a TGI (NCI-H23 lung) of 25.6 µM and a GI50 (OVCAR-5 ovarian) of 9.08 µM. The TGI (OVCAR-5 ovarian) was 27.4 µM, the GI50 (UO-31 renal) was 2.19 µM and the TGI (UO-31 renal) was 13.9 µM. It also gave a GI50 (COLO 205 colon) of 10.2 µM, a TGI (COLO 205 colon) of 22.1 µM and a GI50 (SR leukemia) of 15.7 µM. It also gave a TGI (SR leukemia) of 45.1 µM, a GI50 (UACC-257 melanoma) of 9.7 µM and a TGI (UACC-257 melanoma) of 31.6 µM. The GI50 (SK-MEL-5 melanoma) was 6.19 µM, the TGI (SK-MEL-5 melanoma) was 18.8 µM and the GI50 (PC-3 prostate) was 8.04 µM. The TGI (PC-3 prostate) was 31.1 µM, the GI50 (RPMI-8226 leukemia) was 3.39 µM and the TGI (RPMI-8226 leukemia) was 16.4 µM. The GI50 (LOX IMVI melanoma) was 13.4 µM, the TGI (LOX IMVI melanoma) was 27 µM and the GI50 (HCC-2998 colon) was 10.2 µM. It also gave a TGI (HCC-2998 colon) of 29.5 µM, a GI50 (CCRF-CEM leukemia) of 11.1 µM and a TGI (CCRF-CEM leukemia) of 43.2 µM. It also gave a GI50 (SK-MEL-28 melanoma) of 14.8 µM, a TGI (SK-MEL-28 melanoma) of 36.2 µM and a GI50 (TK-10 renal) of 8.44 µM. For the same molecule, the TGI (TK-10 renal) was 22.4 µM, the GI50 (BT-549 breast) was 10.7 µM and the TGI (BT-549 breast) was 24.4 µM. The GI50 (ACHN renal) was 11.5 µM, the TGI (ACHN renal) was 30.5 µM and the GI50 (U251 CNS) was 11.9 µM. The TGI (U251 CNS) was 29.1 µM, the GI50 (HOP-62 NSCLC) was 13.1 µM and the TGI (HOP-62 NSCLC) was 29.1 µM. The GI50 (A549 NSCLC) was 11.9 µM, the TGI (A549 NSCLC) was 64 µM and the GI50 (SN12C renal) was 12.3 µM. For the same molecule, the TGI (SN12C renal) was 34.2 µM, the GI50 (SNB-19 CNS) was 18.3 µM and the TGI (SNB-19 CNS) was over 100 µM. It also gave a GI50 (SK-OV-3 ovarian) of 11.6 µM, a TGI (SK-OV-3 ovarian) of 30 µM and a GI50 (HT29 colon) of 1.85 µM. The TGI (HT29 colon) was 14.8 µM, the GI50 (SF-295 CNS) was 4.58 µM and the TGI (SF-295 CNS) was 20.9 µM. The GI50 (SW-620 colon) was 11.2 µM, the TGI (SW-620 colon) was 27.3 µM and the GI50 (UACC-62 melanoma) was 12.1 µM. It also gave a TGI (UACC-62 melanoma) of 29.2 µM, a GI50 (K-562 leukemia) of 4.76 µM and a TGI (K-562 leukemia) of 27.9 µM. It also gave a GI50 (OVCAR-3 ovarian) of 4.7 µM, a TGI (OVCAR-3 ovarian) of 17.8 µM and a GI50 (HCT-15 colon) of 8.94 µM. The TGI (HCT-15 colon) was 26.8 µM, the GI50 (IGROV1 ovarian) was 5.73 µM and the TGI (IGROV1 ovarian) was 26.2 µM. It also gave a GI50 (HCT-116 colon) of 3.01 µM, a TGI (HCT-116 colon) of 15.2 µM and a GI50 (SF-539 CNS) of 17.4 µM. The TGI (SF-539 CNS) was 36.2 µM, the GI50 (NCI-H226 lung) was 9.57 µM and the TGI (NCI-H226 lung) was 25.6 µM. The GI50 (NCI-H522 lung) was 2.84 µM, the TGI (NCI-H522 lung) was 17.9 µM and the GI50 (MALME-3M melanoma) was 11.3 µM. It also gave a TGI (MALME-3M melanoma) of 25.7 µM, a GI50 (M14 melanoma) of 12.9 µM and a TGI (M14 melanoma) of 29.4 µM. It also gave a GI50 (EKVX NSCLC) of 4.21 µM, a TGI (EKVX NSCLC) of 26.9 µM and a GI50 (SNB-75 CNS) of 13.3 µM. The TGI (SNB-75 CNS) was 51.7 µM, the GI50 (NCI/ADR-RES ovarian) was 3.91 µM and the TGI (NCI/ADR-RES ovarian) was 22.6 µM. It also gave a GI50 (OVCAR-8 ovarian) of 10.1 µM, a TGI (OVCAR-8 ovarian) of 36.9 µM and a GI50 (SF-268 CNS) of 14.8 µM. The TGI (SF-268 CNS) was 44.4 µM, the GI50 (SK-MEL-2 melanoma) was 12.7 µM and the TGI (SK-MEL-2 melanoma) was 27.4 µM. It also gave a GI50 (MDA-MB-435) of 14.4 µM, a TGI (MDA-MB-435) of 38.7 µM and a GI50 (786-0 renal) of 13.4 µM. It also gave a TGI (786-0 renal) of 27.8 µM, a GI50 (MOLT-4 leukemia) of 8.88 µM and a TGI (MOLT-4 leukemia) of 62.6 µM. It also gave a GI50 (MDA-MB-231 breast) of 11 µM, a TGI (MDA-MB-231 breast) of 26.2 µM and a GI50 (T-47D breast) of 6.2 µM. The TGI (T-47D breast) was 24.9 µM, the GI50 (A498 renal) was 3.28 µM and the TGI (A498 renal) was 19.6 µM. For the same molecule, the GI50 (DU-145 prostate) was 23.2 µM, the TGI (DU-145 prostate) was over 100 µM and the GI50 (HS 578T breast) was 14 µM. It also gave a TGI (HS 578T breast) of 69.3 µM, a GI50 (HOP-92 NSCLC) of 1.95 µM and a TGI (HOP-92 NSCLC) of 8.36 µM. For the same molecule, the GI50 (RXF 393 renal) was 13.1 µM, the TGI (RXF 393 renal) was 27.3 µM and the GI50 (KM12 colon) was 6.94 µM. It also gave a TGI (KM12 colon) of 33.7 µM, a GI50 (MCF7 breast) of 5.28 µM and a TGI (MCF7 breast) of 21.2 µM. For the same molecule, the GI50 (NCI-H460 lung) was 12 µM, the TGI (NCI-H460 lung) was 30.1 µM and the GI50 (OVCAR-4 ovarian) was 5.61 µM. For the same molecule, the TGI (OVCAR-4 ovarian) was 95.3 µM, the GI50 (HL-60(TB) leukemia) was 5.8 µM and the TGI (HL-60(TB) leukemia) was 29.4 µM. For the same molecule, the GI50 (CAKI-1 renal) was 3.98 µM and the TGI (CAKI-1 renal) was 24 µM.
